In patent US7041684B2, “Selective β3 adrenergic agonists” (Eli Lilly and Company, priority 1996, dated 2006):
Where a name gives a salt, the structure may show the parent alone.

| Compound | melting point |
| --- | --- |
| CCOC(=O)COc1ccc(OCCNC[C@H](O)COc2cccc3[nH]c4ccccc4c23)cc1 (as salt: HCl) | 57 to 61 °C (dec.) |
| CC(C)(CNC(=O)c1ccc(Oc2ccc(C#N)cc2)cc1)NC[C@H](O)COc1cccc2[nH]c3ccccc3c12 (as salt: HCl) | 120 to 130 °C (dec.) |
